Where two headings read alike, the source gives them in different places.
Assays:
[1] = system: DBA/2J mice; test: 3-IC-induced hypothermia; format: in vivo, mouse
[2] = system: C57BL/6J mice; test: 3-IC-induced hypothermia; format: in vivo, mouse
[3] = system: human α3β4-nAChR; conditions: Xenopus oocytes; ref Abin-Carriquiry et al., 2006; cited from earlier work
[4] = system: [3H]dopamine release; conditions: read-out: EC50 [3H]dopamine release; cited from earlier work
[5] = system: [125I]epibatidine binding sites (β2*- and β4*-nAChR); design: species or system C57BL/6J mice; conditions: inferior colliculus, wild-type
[6] = system: human α7 nAChR; conditions: read-out: EC50 human α7 nAChR; cited from earlier work
[7] = biological target: β4*-nAChR (Mus musculus, UniProt Q8R493+Q8R4G9); test: biochemical; format: binding, C57BL/6J mice
β4*-nAChR (Mus musculus, UniProt Q8R493+Q8R4G9), sequence (Q8R493 21-495): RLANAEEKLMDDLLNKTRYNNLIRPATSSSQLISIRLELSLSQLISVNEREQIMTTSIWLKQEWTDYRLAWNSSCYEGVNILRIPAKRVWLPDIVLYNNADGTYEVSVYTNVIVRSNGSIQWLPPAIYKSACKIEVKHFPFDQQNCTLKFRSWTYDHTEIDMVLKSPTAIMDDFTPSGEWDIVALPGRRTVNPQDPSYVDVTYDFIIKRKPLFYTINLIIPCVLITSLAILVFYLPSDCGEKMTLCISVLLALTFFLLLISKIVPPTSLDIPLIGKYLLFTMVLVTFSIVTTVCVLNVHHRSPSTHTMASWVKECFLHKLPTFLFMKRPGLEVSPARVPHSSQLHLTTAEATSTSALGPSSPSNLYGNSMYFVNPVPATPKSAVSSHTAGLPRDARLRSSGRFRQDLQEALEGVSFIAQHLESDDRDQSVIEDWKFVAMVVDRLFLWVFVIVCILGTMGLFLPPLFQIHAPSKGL
β4*-nAChR (Mus musculus, UniProt Q8R493+Q8R4G9), sequence (Q8R4G9 26-499): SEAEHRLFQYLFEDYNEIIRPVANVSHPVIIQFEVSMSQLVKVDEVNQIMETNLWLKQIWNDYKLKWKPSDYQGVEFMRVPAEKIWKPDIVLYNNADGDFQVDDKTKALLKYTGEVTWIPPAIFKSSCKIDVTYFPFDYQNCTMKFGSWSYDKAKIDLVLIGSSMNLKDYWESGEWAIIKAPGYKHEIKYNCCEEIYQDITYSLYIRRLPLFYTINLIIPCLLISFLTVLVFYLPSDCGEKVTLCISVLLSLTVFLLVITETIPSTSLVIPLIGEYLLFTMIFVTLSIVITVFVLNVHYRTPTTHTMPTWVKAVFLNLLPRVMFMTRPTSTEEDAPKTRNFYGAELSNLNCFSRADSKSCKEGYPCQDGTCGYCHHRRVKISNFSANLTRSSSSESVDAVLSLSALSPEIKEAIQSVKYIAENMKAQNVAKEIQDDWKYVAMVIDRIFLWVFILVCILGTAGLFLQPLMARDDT

[8] = system: α4β2-nAChR; conditions: cited from earlier work
[9] = system: β4*-nAChR; conditions: ref Luetje and Patrick, 1991; cited from earlier work
[10] = rats; ref Sloan et al., 1988; cited from earlier work
[11] = biological target: α7-nAChR (Mus musculus, UniProt P49582); test: biochemical; format: binding, C57BL/6J mice
α7-nAChR, sequence (P49582 23-502): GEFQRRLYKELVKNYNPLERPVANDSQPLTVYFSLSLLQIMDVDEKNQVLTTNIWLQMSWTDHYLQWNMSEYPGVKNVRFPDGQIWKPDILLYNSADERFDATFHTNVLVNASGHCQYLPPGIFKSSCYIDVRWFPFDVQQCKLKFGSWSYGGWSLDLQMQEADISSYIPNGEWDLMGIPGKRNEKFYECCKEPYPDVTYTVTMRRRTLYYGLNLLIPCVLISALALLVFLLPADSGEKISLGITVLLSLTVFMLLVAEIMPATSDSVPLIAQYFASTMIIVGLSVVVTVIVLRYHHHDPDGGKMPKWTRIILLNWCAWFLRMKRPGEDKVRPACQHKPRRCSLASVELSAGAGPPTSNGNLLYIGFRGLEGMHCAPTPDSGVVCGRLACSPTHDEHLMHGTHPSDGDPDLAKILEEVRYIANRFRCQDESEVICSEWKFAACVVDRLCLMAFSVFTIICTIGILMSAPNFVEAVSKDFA

[12] = system: β2*-nAChR; conditions: ref Luetje and Patrick, 1991; cited from earlier work
[13] = biological target: α4β2* receptors; conditions: read-out: Ki α4β2* receptors in rat brain; cited from earlier work
[14] = system: [3H]noradrenaline release; conditions: read-out: EC50 [3H]noradrenaline release; cited from earlier work
[15] = biological target: β2*-nAChR (Mus musculus, UniProt O70174+Q9ERK7); test: biochemical; format: binding, C57BL/6J mice
β2*-nAChR (Mus musculus, UniProt O70174+Q9ERK7), sequence (O70174 31-629): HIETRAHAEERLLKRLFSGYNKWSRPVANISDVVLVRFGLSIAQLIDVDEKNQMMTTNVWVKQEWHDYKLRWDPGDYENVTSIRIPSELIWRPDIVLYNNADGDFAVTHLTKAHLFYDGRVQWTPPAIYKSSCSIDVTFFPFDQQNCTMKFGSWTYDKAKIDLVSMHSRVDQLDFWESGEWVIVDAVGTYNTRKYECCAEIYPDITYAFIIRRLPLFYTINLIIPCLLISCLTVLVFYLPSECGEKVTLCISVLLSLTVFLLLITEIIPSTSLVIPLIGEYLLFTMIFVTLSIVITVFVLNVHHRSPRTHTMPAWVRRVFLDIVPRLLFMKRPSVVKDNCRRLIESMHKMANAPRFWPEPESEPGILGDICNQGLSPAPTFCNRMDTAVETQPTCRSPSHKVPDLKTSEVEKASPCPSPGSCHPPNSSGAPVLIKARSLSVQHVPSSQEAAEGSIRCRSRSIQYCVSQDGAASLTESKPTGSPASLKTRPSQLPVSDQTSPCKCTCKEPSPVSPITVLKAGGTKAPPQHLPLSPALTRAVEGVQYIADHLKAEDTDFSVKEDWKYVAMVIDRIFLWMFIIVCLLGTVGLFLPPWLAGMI
β2*-nAChR (Mus musculus, UniProt O70174+Q9ERK7), sequence (Q9ERK7 26-501): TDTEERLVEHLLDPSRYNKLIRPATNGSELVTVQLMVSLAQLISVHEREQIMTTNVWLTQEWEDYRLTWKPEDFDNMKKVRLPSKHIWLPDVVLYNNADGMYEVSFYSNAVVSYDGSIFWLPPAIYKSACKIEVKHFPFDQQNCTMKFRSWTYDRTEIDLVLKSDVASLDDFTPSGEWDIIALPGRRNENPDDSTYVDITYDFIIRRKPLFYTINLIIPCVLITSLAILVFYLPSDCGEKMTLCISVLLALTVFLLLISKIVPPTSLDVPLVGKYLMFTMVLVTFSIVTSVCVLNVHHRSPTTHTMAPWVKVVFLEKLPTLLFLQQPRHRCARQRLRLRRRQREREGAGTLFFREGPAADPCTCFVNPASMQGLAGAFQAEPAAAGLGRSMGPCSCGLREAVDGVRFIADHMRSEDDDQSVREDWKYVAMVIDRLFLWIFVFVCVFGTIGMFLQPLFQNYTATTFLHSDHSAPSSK

[16] = biological target: α7* receptors; conditions: read-out: Ki α7* receptors in rat brain; cited from earlier work
[17] = biological target: human α4β2; conditions: read-out: Ki human α4β2; cited from earlier work
[18] = biological target: human α7; conditions: read-out: Ki human α7; cited from earlier work
[19] = system: α7* nAChR binding sites; conditions: ten days 2 mg/kg/h nicotine, DBA/2J, ref Pauly et al., 1991, cited from earlier work

C[N+](C)(C)CCCCCC[N+](C)(C)C [hexamethonium, reference compound]
effect of hexamethonium alone on body temperature ([1]; 10 mg/kg ip, DBA/2J, vs saline): modest, but statistically significant, hypothermia
maximal 3-IC-induced hypothermia after hexamethonium pretreatment ([1]; hexamethonium 10 mg/kg 10 min before 3-IC 0.2 mg/kg, DBA/2J): 5.66 ± 0.45 °C
blockade of 3-IC-induced hypothermia ([1]; hexamethonium 10 mg/kg, DBA/2J): 33%
effect of hexamethonium alone on body temperature ([2]; 10 mg/kg ip, vs saline): did not affect body temperature
blockade of 3-IC-induced hypothermia ([2]; hexamethonium 10 mg/kg): 60%
maximal 3-IC-induced hypothermia after hexamethonium pretreatment ([2]; hexamethonium 10 mg/kg 10 min before 3-IC 0.2 mg/kg): 3.75 ± 0.67 °C

O=c1c(Br)ccc2n1C[C@@H]1CNC[C@H]2C1 [3-bromocytisine]
agonist efficacy at human α3β4-nAChR [3]: full agonist

O=c1cccc2n1C[C@@H]1CNC[C@H]2C1 [cytisine, reference compound]
EC50 [4]: 280 nM
difference in affinity for the two [125I]epibatidine binding sites [5]: 60 fold
EC50 [6]: 83000 nM
Ki [7]: 9.7 ± 1.5 nM
EC50 ([8]; read-out: EC50 high agonist sensitive form of α4β2-nAChR): 5 nM
EC50 ([8]; read-out: EC50 low agonist sensitive form of α4β2-nAChR): 2000 nM
agonist efficacy at β4*-nAChR [9]: full agonist
half-life [10]: longer half-life than nicotine
Ki [11]: 1580 ± 180 nM
agonist efficacy at β2*-nAChR [12]: partial agonist
Ki [13]: 1.2 nM
EC50 [14]: 7400 nM
Ki [15]: 0.35 ± 0.01 nM
Ki [16]: 8000 nM
Ki [17]: 0.6 nM
Ki [18]: 30000 nM

CNC1(C)C2CCC(C2)C1(C)C (stereo not drawn) [mecamylamine, reference compound]
effect of mecamylamine alone on body temperature ([1]; 1 mg/kg ip, both mice strains): did not affect body temperature
time of maximal hypothermia after 3-IC injection, mecamylamine pretreated ([1]; mecamylamine 1 mg/kg + 3-IC 0.2 mg/kg, DBA/2J): 20 min
3-IC-induced hypothermia after mecamylamine pretreatment ([1]; mecamylamine 1 mg/kg ip 10 min before 3-IC 0.2 mg/kg, DBA/2J): 1.13 ± 0.42 °C
blockade of 3-IC-induced hypothermia ([2]; mecamylamine 1 mg/kg before 3-IC 0.2 mg/kg): complete
3-IC-induced hypothermia after mecamylamine pretreatment ([2]; mecamylamine 1 mg/kg ip 10 min before 3-IC 0.2 mg/kg): 0.13 ± 0.09 °C

CN1CCC[C@H]1c1cccnc1 [nicotine]
difference in affinity for the two [125I]epibatidine binding sites [5]: 20 fold
Ki [11]: 930 ± 100 nM
increase in [125I]α-bungarotoxin binding sites ([19]; caudate putamen): 14.2%
increase in [125I]α-bungarotoxin binding sites ([19]; dentate gyrus): 12.6%
increase in [125I]α-bungarotoxin binding sites ([19]; hippocampus): 33%
increase in [125I]α-bungarotoxin binding sites ([19]; medial habenula): 22.6%
increase in [125I]α-bungarotoxin binding sites ([19]; substantia nigra): 25.6%
increase in [125I]α-bungarotoxin binding sites ([19]; zona incerta): 17.6%
